Measurements: patent US20260008784A1 (VASTHERA CO., LTD., priority 2022, published 2026)
Like-named read-outs stand apart in the source and are kept apart here.

Assays:
[1] = system: yeast thioredoxin (Trx)/yeast Trx reductase (TR); test: Peroxidase activity assay (H2O2 reduction, NADPH oxidation); format: biochemical; details: 50 μM test compound, 3 μM yeast Trx, 1.5 μM yeast TR, 250 μM NADPH, 1.2 mM H2O2, 30° C.; NADPH oxidized per minute
Protocol: Hydrogen peroxide (H2O2)-reducing peroxidase activity of compounds in present invention was performed as follows. Peroxyredoxin activity was measured in reaction mixture (200 μL volume) containing 50 mM HEPES buffer (pH 7.0), 1 mM EDTA, 250 μM NADPH, 3 μM yeast thioredoxin (Trx), 1.5 μM yeast Trx reductase (TR), 50 μM test compound, and 1.2 mM H2O2.
Reaction was initiated by adding H2O2 and the decrease in absorbance at 340 nm was measured using Agilent UV8453 spectrophotometry (Hewlett Packard, USA) at 30° C. for 12 min. Initial reaction rate is the amount of NADPH oxidized per minute calculated from slope of the linear part of curve.
The H2O2-reducing peroxidase activity of the test compounds in present invention was measured in a reaction mixture containing thioredoxin (Trx)/thioredoxin reductase (TR), respectively.

in vitro [2] = details: human
Protocol: For cytotoxicity analysis, human aortic endothelial cells (HAEC) and smooth muscle cells (HASMC) were seeded in a 96-well culture plate at density of 4000 cells/well in a final volume of 100 μL. Cells were cultured for 24 h and serum-starved for an additional 18 h. Test compounds were serially diluted with EBM-2 culture medium, added to the plate at 100 μL/well, and further incubated for 24 h. The number of viable cells was measured using the WST-1 cell viability assay kit (Roche Diagnostics, USA). Cell number was expressed as absorbance values at 450 nm after subtracting the turbidity value at 600 nm. The absorbance values from three replicate wells were averaged.
After treatment with ascending concentrations of each compound, the concentration of test compound corresponding to 50% cell viability (CC50) was measured.

in vitro [3] = test: in vitro
Protocol: Cytotoxicity tests were performed against vascular endothelial cells, vascular smooth muscle cells and hepatocytes. After treatment with ascending concentrations of each compound, the concentration of test compound corresponding to 50% cell viability (CC50) was measured.

[4] = Measurement of redox potential (DTT redox buffers, HPLC); format: physicochemical; details: DTT(Red)/DTT(Ox) redox buffers, 3 h, 30° C., 50% reduction of test compound
Protocol: A test compound (10 mM) was diluted 20-fold with each redox buffer solution and incubated for 3 h in a 30° C. water bath. Then, compounds were analyzed by HPLC. The area of peaks corresponding to the oxidized and reduced forms of test compound based on specific retention time was calculated and plotted as percent of total peak area against the Nernst equation value (mV) at x-axis. The Nernst equation value corresponding to 50% reduction of test compound was set as the midpoint redox potential value for test compound.
The redox potential values of the test compounds were analyzed based on the potential values established in redox buffer solutions where reduced and oxidized DTT are mixed at various ratios.

[5] = system: Tyr 857 phosphorylation of PDGF receptor-β (PDGFRβ) in HASMC; test: Immunoblot of PDGF-mediated signaling in PrxII knock-down HASMC; format: cell-based, human; details: HASMC depleted of PrxII expression, FIG. 2
Protocol: (§1) Cells were quickly washed in ice-cold phosphate-buffered saline (PBS) and lysed in extraction buffer containing 20 mM Hepes (pH 7.0), 1% Triton X-100, 150 mM NaCl, 10% glycerol, 1 mM EDTA, 2 mM EGTA, and 1 mM DTT, 5 mM Na3VO4, 5 mM NaF, 1 mM AEBSF, aprotinin (5 μg/mL), and leupeptin (5 μg/mL). After cen-trifugation at 12,000×g, the clarified cell extracts were used for immunoblotting. For re-blotting, the immunoblots were retrieved in a solution of 67 mM Tris (pH 6.7), 2% SDS, and 100 mM 2-mercaptoethanol at 60° C. for 30 min to remove antibodies and rinsed three times with a Tris-buffered saline (TBS) solution containing 1% Triton X-100. The retrieved membranes were subjected to new immunoblotting.
In human aortic smooth muscle cell (HASMC) and human pulmonary artery smooth muscle cell (PASMC) in which PrxII was knocked out by transfecting the PrxII siRNA, the ability of test compounds to replace the cellular function of PrxII was evaluated. That is, the efficacy of the new compounds was verified in terms of signaling pathways induced by PDGF that regulates the growth and migration of vascular smooth muscle cells in the aorta and pulmonary artery. Activation of PDGF-induced signaling pathway was analyzed by an immunoblot method using an antibody that specifically recognizes phosphorylation of Tyr 857, which is a major phosphorylation site on PDGF receptor (PDGFRβ).

NIH-3T3 cells = test: Intracellular H2O2-eliminating activity (CM-H2DCF-DA fluorescence); format: cell-based; details: Mus musculus, NIH3T3, glucose oxidase, concentration at 50% reduction of intracellular H2O2
Protocol: The activity of test compounds in present invention to eliminate intracellular H2O2 was measured as follows. NIH-3T3 cells (ATCC) were seeded in a 35-mm culture dish at 2×10^5 cells/well. After culture for 24 hours, cells were serum-starved with phenol red free-basal DMEM containing 0.5% FBS for 6 h. Starved NIH 3T3 cells were pretreated with compounds diluted with phenol red free-basal DMEM at concentrations ([…]) for 30 min, followed by treatment with 20 mU of glucose oxidase (Gox) for 30 min. A reactive oxygen species-sensitive fluorescence dye, carboxymethyl-dichlorofluorescein-diacetate (CM-H2DCF-DA), which was prepared in 1 mM DMSO stock and diluted 500 times in phenol red free-basal DMEM, was added to the cells and incubated for 5 min. Then, cells were quickly rinsed with basal medium. Images were taken at excitation 497 nm/emission 518 nm settings using a fluorescence microscope. Three images at 10× magnification per sample were obtained, and fluorescence intensities from 30 or more individual cells per image were averaged.
The intracellular H2O2-eliminating activity of test compounds in present invention was measured using a live-cell imaging fluorescence probe (CM-HaDCF-DA). H2O2-eliminating activity was measured depending on ascending concentrations of the test compound and expressed as the percent of activity compared to the untreated control group. EC50 represents the concentration of test compound at 50% reduction of intracellular H2O2.

[6] = system: Tyr 1175 phosphorylation of VEGF receptor-2 (VEGFR2) in HAEC; test: Immunoblot of VEGF-mediated signaling in PrxII knock-down HAEC; format: cell-based, human; details: HAECs depleted of PrxII expression, FIG. 5
Protocol: as §1
In human aortic endothelial cell (HAEC) and human pulmonary artery endothelial cell (PAEC) in which PrxII was knocked out by transfecting the PrxII siRNA, the ability of test compounds to replace the cellular function of PrxII was evaluated. That is, the efficacy of the new compounds was verified in terms of signaling pathways induced by VEGF that regulates the growth and migration of vascular endothelial cells in the aorta and pulmonary artery. Activation of VEGF-induced signaling pathway was analyzed by an immunoblot method using an antibody that specifically recognizes phosphorylation of Tyr 1175, which is a major phosphorylation site on VEGF receptor-2 (VEGFR2).

[7] = system: human pulmonary artery smooth muscle cell (PASMC); test: PDGF-induced proliferation assay, PASMC (PrxII siRNA); format: cell-based; details: for Degree of PASMC proliferation: PDGF-BB 25 ng/mL, percent of untreated control
Protocol: (§2) HASMCs and PASMCs were transfected with a PrxII-specific siRNA using RNAi MAX transfection reagent according to manufacturer's protocol. After 24 hours, transfected cells (3,000 cells/well) were seeded in a 96-well culture plate. At 12 h after seeding, cells were serum-starved for additional 18 h in SmBM basal medium containing 0.5% FBS. Test compounds were serially diluted with the same basal medium containing 0.5% FBS, added to the cells ([…]), and incubated for 2 h. After treatment, cells were placed in fresh SmBM medium containing 0.5% FBS and PDGF-BB (25 ng/mL) for growth factor stimulation and further cultured for 24 h.
(§3) The degree of cell proliferation was measured using the Cell Titer-GLO kit ([…]). Data are the percent of luminescence intensity averaged from three replicate wells versus that of untreated control group.
(§4) In human aortic smooth muscle cell (HASMC) and human pulmonary artery smooth muscle cell (PASMC) in which PrxII was knocked out by transfecting the PrxII siRNA, the ability of test compounds to inhibit the PDGF-induced proliferation of vascular smooth muscle cells was evaluated. In Table 6, the degree of proliferation in the compound-treated groups is expressed as percent of the degree of proliferation in untreated control group. The concentrations of test compounds corresponding to 50% growth inhibition (IC50) is also listed.

[8] = system: human aortic smooth muscle cell (HASMC); test: PDGF-induced proliferation assay, HASMC (PrxII siRNA); format: cell-based; details: for Degree of HASMC proliferation: PDGF-BB 25 ng/mL, percent of untreated control
Protocol: as §2, §3, §4

[9] = system: human aortic endothelial cell (HAEC); test: VEGF-induced proliferation assay, HAEC (PrxII siRNA); format: cell-based; details: for Degree of HAEC proliferation: VEGF-A 25 ng/mL, percent of untreated control
Protocol: as §2, with “HAECs” for “HASMCs”, “PAECs” for “PASMCs”, “EBM” for “SmBM”, “VEGF-A” for “PDGF-BB”
as §3
In human aortic endothelial cell (HAEC) and human pulmonary artery endothelial cell (PAEC) in which PrxII was knocked out by transfecting the PrxII siRNA, the ability of test compounds to augment the VEGF-induced proliferation of vascular endothelial cells was evaluated. In Table 7, the degree of proliferation in the compound-treated groups is expressed as percent of the degree of proliferation in untreated control group. The effective concentrations of test compounds increasing cell proliferation by 50% (EC50) is also listed.

| Structure (SMILES) | Peroxidase activity for H2O2 reduction [1] [nmol/min] | CC50 (in vitro [2]) [nM] | CC50 (in vitro [3]) [nM] | Midpoint redox potential (E m) [4] [mV] | Effect on phosphorylation of Tyr 857 on PDGFR [5] | EC50 (NIH-3T3 cells) [nM] | Effect on phosphorylation of Tyr 1175 on VEGFR2 [6] | further results |
| --- | --- | --- | --- | --- | --- | --- | --- | --- |
| CN1C(=O)C2CSSC1(C)C(=O)N2Cc1cnn(C)c1 (centres unmarked) [Compound 13, 1,8-dimethyl-6-((1-methyl-1H-pyrazol-4-yl)methyl)-2,3-dithia-6,8-diazabicyclo[3.2.2]nonane-7,9-dione] | 4.78 | > 500000 | > 500000 |  |  |  |  |  |
| CN1C(=O)C2CSSC1(C)C(=O)N2Cc1ccccn1 (centres unmarked) [Compound 6, 1,8-dimethyl-6-(pyridin-2-ylmethyl)-2,3-dithia-6,8-diazabicyclo[3.2.2]nonan-7,9-dione] | 4.57 |  | 341000 | −290.39 | strongly abolish the phosphorylation | 5.99 | strongly abolish the phosphorylation |  |
| CN1C(=O)C2CSSC1(C)C(=O)N2Cc1ccccc1 (centres unmarked) [Compound 2, 6-benzyl-1,8-dimethyl-2,3-dithia-6,8-diazabicyclo[3.2.2]nonane-7,9-dione] | 5.05 |  | > 500000 | −293.19 | strongly abolish the phosphorylation | 6.47 | strongly abolish the phosphorylation |  |
| C=CCN1C(=O)C2SSC1C(=O)N2CC=C [Control compound (A5), reference compound] | 4.25 |  | 62300 |  |  | 15.2 |  |  |
| Cc1cccc(CN2C(=O)C3(C)SSCC2C(=O)N3C)n1 (centres unmarked) [Compound 12, 1,8-dimethyl-6-((6-methylpyridin-2-yl)methyl)-2,3-dithia-6,8-diazabicyclo[3.2.2]nonane-7,9-dione] | 4.94 | > 500000 | > 500000 |  |  |  |  |  |
| CN1CCN2C(=O)C3CSSC2(C1)C(=O)N3Cc1ccccc1 (centres unmarked) [Compound 21, 12-benzyl-9-methylhexahydro-5H-4,10a-(epiminomethano)pyrazino[2,1-c][1,2,4]dithi azepine-5,11-dione] | 8.38 |  |  | −272.86 | strongly abolish the phosphorylation |  | strongly abolish the phosphorylation | Degree of PASMC proliferation ([7]; 2.5 nM): 69.9%; Degree of PASMC proliferation ([7]; 5 nM): 49.6%; Degree of PASMC proliferation ([7]; 10 nM): 18.7%; Degree of PASMC proliferation ([7]; 25 nM): 6.0%; Degree of PASMC proliferation ([7]; 50 nM): 7.1%; Degree of PASMC proliferation ([7]; 100 nM): 0.0%; IC50 ([7]; Homo sapiens, PASMC, 50% growth inhibition, PDGF-stimulated): 4.51 nM; Degree of HASMC proliferation ([8]; 2.5 nM): 88.1%; Degree of HASMC proliferation ([8]; 5 nM): 63.9%; Degree of HASMC proliferation ([8]; 10 nM): 27.2%; Degree of HASMC proliferation ([8]; 25 nM): 4.0%; IC50 ([8]; Homo sapiens, HASMC, 50% growth inhibition, PDGF-stimulated): 6.41 nM; Degree of HAEC proliferation ([9]; 2.5 nM): 105.0%; Degree of HAEC proliferation ([9]; 5 nM): 122.7%; Degree of HAEC proliferation ([9]; 10 nM): 154.6%; Degree of HAEC proliferation ([9]; 25 nM): 190.1%; Degree of HAEC proliferation ([9]; 50 nM): 202.0%; Degree of HAEC proliferation ([9]; 100 nM): 141.2%; EC50 ([9]; Homo sapiens, Endothelial cell, effective concentration increasing cell proliferation by 50%, VEGF-stimulated): 9.96 nM |
